Counter-ions that a name gives are not always drawn.
Key:
Format in all cases: in vitro ADME
[1] = Hepatic stability (rat cryopreserved hepatocytes); conditions: pH 7.4, 1 μM test compound, 1×10^6 cells/mL, 37° C., read-out: Averages. Hep Half Life Rat
Description: Example 29—Hepatic Stability
Cryopreserved hepatocytes (rat and human) were obtained from Bioreclamation. Test compound stock solutions in DMSO (10 mM) were diluted with DMSO to 4 mM. Further dilution was completed to achieve a 100 μM stock (5 μL of 4 mM in 195 μL of 50:50 DMSO:hepatocyte buffer). Final test compound concentration in incubation was 1 μM. The following probe substrates were used: testosterone and carbamazepine at a final incubation concentration of 1 μM. Hepatocyte buffer was prepared (Williams E media containing phenol red and Glutamax™, 15 mM HEPES, warmed to 37° C., pH7.4 with NaOH). Cells were removed from liquid nitrogen, thawed in a waterbath, decanted into 50 mL of pre-warmed Cryopreserved Hepatocyte Recovery Media (LifeTechnologies) and centrifuged. Supernatant fraction was removed, cells were re-suspended in hepatocyte buffer and counted by trypan blue exclusion. Cell viability of >80% was required for all assays. Cells were re-suspended to 1×10^6/mL and 198 μL cell suspension added to each 96-well. 2 μL of 100 μM compound stock solution was added to relevant wells to initiate the incubation. A no cell control and two replicates of each test compound was included in every assay. Cells were incubated at 37° C., on a shaker set at 300 rpm. At each timepoint (0, 15, 30, 45, 60, 90 min) 20 μL of sample was removed from the 96-well and added to 80 μL of quench solution (acetonitrile containing 0.1% formic acid and imipramine/labetalol, 200 nM). Samples were diluted 1:1 with water using the Janus Robot and analysed by LC-MS/MS.

[2] = Microsomal stability (human microsomes); conditions: 0.5 mg/mL protein, 1 mM NADPH, 37° C.; for half-life at 1 μM: pH 7.4, 1 μM test compound, read-out: Averages. Mic Half Life Human; for Averages. Mic Half Life Human: 1 μM test compound
Description: (§1) Example 28—Microsomal Stability
(§2) Microsomes (rat and human) were obtained from Bioreclamation. Test compound stock solutions in DMSO (10 mM) were diluted with DMSO to 2 mM. Further dilution was completed to achieve a 100 μM stock (final concentrations; 91.5% Acetonitrile: 8.5% DMSO). Final test compound concentration in incubation was 1 μM (<0.1% DMSO). The following probe substrates were used: verapamil, propranolol, metoprolol and phenacetin (rat) at a final incubation concentration of 1 μM. Assay buffer—Solution 1: 17.4 g potassium phosphate dibasic anhydrous (K2HPO4, 0.1 M) dissolved in 1 L deionised water. Solution 2: 13.6 g potassium phosphate monobasic anhydrous (KH2PO4, 0.1 M) dissolved in 1 L deionised water. Potassium phosphate solutions 1 and 2 were combined to form a pH 7.42 solution at 37° C. pH 7.4 with 2 mM magnesium chloride. NADPH (10 mM)—diluted in deionised water. Frozen microsomes were thawed at 37° C. Microsomes were diluted in assay buffer to achieve a final protein concentration of 0.5 mg/mL and 1 mM NADPH. The following procedure was completed on a Perkin Elmer Janus robotic platform in 96 well format: The microsomal incubation plate was transferred to a heater shaker at 300 rpm and solution heated to 37° C. for 10 min pre-warm. A no co-factor control at 0 and 45 min and one replicates of each test compound was included in every assay. Microsomes were incubated at 37° C., on a shaker set at 300 rpm throughout the assay. At each timepoint (0, 5, 15, 30, 45 min) 50 μL of sample was removed from the 96-well and added to 200 μL of quench solution (acetonitrile containing 0.1% formic acid and imipramine/labetalol, 200 nM). Samples were diluted 1:1 with water using the Janus Robot and analysed by LC-MS/MS.

[3] = Microsomal stability (rat microsomes); conditions: pH 7.4, 1 μM test compound, 0.5 mg/mL protein, 1 mM NADPH, 37° C., read-out: Averages. Mic Half Life Rat
Description: as §1, §2

Row | half-life at 1 μM [1] | half-life at 1 μM [2] | half-life at 1 μM [3] | Averages. Mic Half Life Human [2] | Compound
1 | 16 min | 86 min | 8 min | – | CCn1c(CNC(=O)c2nc(Br)cnc2N)[n+](CCOCCOCCO)c2ccc(OC)cc21.O=C[O-] [Example 4, 2-{[(3-amino-6-bromopyrazin-2-yl)formamido]methyl}-1-ethyl-3-{2-[2-(2-hydroxyethoxy)ethoxy]ethyl}-6-methoxy-1H-1,3-benzodiazol-3-ium formate]
2 | 6 min | – | 4 min | 138 min | CCn1c(CNC(=O)c2nc(Br)cnc2N)[n+](C)c2ccc(Cl)cc21.O=CO.O=C[O-] [Example 11, 2-{[(3-amino-6-bromopyrazin-2-yl)formamido]methyl}-6-chloro-1-ethyl-3-methyl-1H-1,3-benzodiazol-3-ium formic acid formate]
3 | 25 min | 92 min | 77 min | – | CCn1c(CNC(=O)c2nc(Br)cnc2N)[n+](CC)c2ccc(-c3cnn(C4CCNCC4)c3)cc21.Cl.[I-] [Example 21, 2-{[(3-amino-6-bromopyrazin-2-yl)formamido]methyl}-1,3-diethyl-6-[1-(piperidin-4-yl)-1H-pyrazol-4-yl]-1H-1,3-benzodiazol-3-ium hydrochloride iodide]
4 | – | 23 min | 3 min | – | CCc1cnc(N)c(C(=O)NCc2n(CC)c3cc(OC)ccc3[n+]2C)n1.[I-] [Example 8, 2-{[(3-amino-6-ethylpyrazin-2-yl)formamido]methyl}-1-ethyl-6-methoxy-3-methyl-1H-1,3-benzodiazol-3-ium iodide]
5 | 124 min | > 138 min | > 138 min | – | CCn1c(CNC(=O)c2nc(Br)cnc2N)[n+](CC)c2ccc(-c3cnn(C4CCN(C[C@H](O)[C@@H](O)[C@H](O)[C@H](O)CO)CC4)c3)cc21.O=CO.[Cl-] [Example 23, 2-{[(3-amino-6-bromopyrazin-2-yl)formamido]methyl}-1,3-diethyl-6-(1-{1-[(2S,3R,4R,5R)-2,3,4,5,6-pentahydroxyhexyl]piperidin-4-yl}-1H-pyrazol-4-yl)-1H-1,3-benzodiazol-3-ium formic acid chloride]
6 | 5 min | 58 min | 3 min | – | CCn1c(CNC(=O)c2nc(Br)cnc2N)[n+](CC)c2ccc(OC)cc21.O=C[O-] [Example 2, 2-{[(3-amino-6-bromopyrazin-2-yl)formamido]methyl}-1,3-diethyl-6-methoxy-1H-1,3-benzodiazol-3-ium formate]
7 | – | 5 min | 3 min | – | CCn1c(CNC(=O)c2nc(SC)cnc2N)[n+](C)c2ccc(OC)cc21.[I-] [Example 9, 2-({[3-amino-6-(methylsulfanyl)pyrazin-2-yl]formamido}methyl)-1-ethyl-6-methoxy-3-methyl-1H-1,3-benzodiazol-3-ium iodide]
8 | 32 min | 135 min | 29 min | – | CCn1c(CNC(=O)c2nc(Br)cnc2N)[n+](CC)c2ccc(C(=O)N[C@@H]3CCOC3=O)cc21 [Example 17, 2-{[(3-amino-6-bromopyrazin-2-yl)formamido]methyl}-1,3-diethyl-6-{[(3R)-2-oxooxolan-3-yl]carbamoyl}-1H-1,3-benzodiazol-3-ium formate]
9 | 14 min | – | 11 min | 138 min | CCn1c(CNC(=O)c2nc(Br)cnc2N)[n+](CC)c2ccc(C(=O)OC)cc21.[I-] [Example 15, 2-{[(3-amino-6-bromopyrazin-2-yl)formamido]methyl}-1,3-diethyl-6-(methoxycarbonyl)-1H-1,3-benzodiazol-3-ium iodide]
10 | 14 min | – | 5 min | 138 min | CCn1c(CNC(=O)c2nc(Br)cnc2N)[n+](C)c2ccc(C(F)(F)F)cc21.[I-] [Example 13, 2-{[(3-amino-6-bromopyrazin-2-yl)formamido]methyl}-1-ethyl-3-methyl-6-(trifluoromethyl)-1H-1,3-benzodiazol-3-ium iodide]
11 | 46 min | > 138 min | 61 min | – | CCn1c(CNC(=O)c2nc(Br)cnc2N)[n+](CC)c2ccc(C(=O)N[C@H]3CCOC3=O)cc21 [Example 18, 2-{[(3-amino-6-bromopyrazin-2-yl)formamido]methyl}-1,3-diethyl-6-{[(3S)-2-oxooxolan-3-yl]carbamoyl}-1H-1,3-benzodiazol-3-ium formate]
12 | 17 min | – | – | – | CCn1c(CNC(=O)c2nc(Br)cnc2N)[n+](Cc2ccccc2)c2ccc(C(F)(F)F)cc21.O=C[O-] [Example 19, 2-{[(3-Amino-6-bromopyrazin-2-yl)formamido]methyl}-3-benzyl-1-ethyl-6-(trifluoromethyl)-1H-1,3-benzodiazol-3-ium formate]
13 | 28 min | – | 11 min | 138 min | CCn1c(CNC(=O)c2nc(Br)cnc2N)[n+](C)c2ccc(OC(F)(F)F)cc21.O=C[O-] [Example 14, 2-{[(3-amino-6-bromopyrazin-2-yl)formamido]methyl}-1-ethyl-3-methyl-6-(trifluoromethoxy)-1H-1,3-benzodiazol-3-ium formate]
14 | 16 min | 22 min | 7 min | – | CCn1c(CNC(=O)c2nc(C)cnc2N)[n+](C)c2ccc(OC)cc21.[I-] [Example 7, 2-{[(3-amino-6-methylpyrazin-2-yl)formamido]methyl}-1-ethyl-6-methoxy-3-methyl-1H-1,3-benzodiazol-3-ium iodide]
15 | 90 min | > 138 min | > 138 min | – | CCn1c(CNC(=O)c2nc(Br)cnc2N)[n+](CC)c2ccc(-c3cnn(C4CCN(C(=N)N)CC4)c3)cc21.O=CO.O=C[O-] [Example 22, 2-{[(3-amino-6-bromopyrazin-2-yl)formamido]methyl}-6-[1-(1-carbamimidoylpiperidin-4-yl)-1H-pyrazol-4-yl]-1,3-diethyl-1H-1,3-benzodiazol-3-ium formic acid formate]
16 | – | 111 min | 4 min | – | CCn1c(CNC(=O)c2nc(Br)cnc2N)[n+](C)c2ccc(F)cc21.O=C[O-] [Example 12, 2-{[(3-amino-6-bromopyrazin-2-yl)formamido]methyl}-1-ethyl-6-fluoro-3-methyl-1H-1,3-benzodiazol-3-ium formate]

Row | Compound | half-life at 1 μM [1] | half-life at 1 μM [2] | half-life at 1 μM [3] | Averages. Mic Half Life Human [2]
17 | CCn1c(CNC(=O)c2nc(Br)cnc2N)[n+](CC)c2ccc(-c3cnn(C4CCN(C(=O)OC(C)(C)C)CC4)c3)cc21.[I-] [Example 20, 2-{[(3-amino-6-bromopyrazin-2-yl)formamido]methyl}-6-(1-{1-[(tert-butoxy)carbonyl]piperidin-4-yl}-1H-pyrazol-4-yl)-1,3-diethyl-1H-1,3-benzodiazol-3-ium iodide] | 20 min | > 138 min | 61 min | –
18 | CCn1c(CNC(=O)c2nc(Br)cnc2N)[n+](CC)c2ccc(OCCNC(=O)OC(C)(C)C)cc21.O=C[O-] [Example 24, 2-{[(3-amino-6-bromopyrazin-2-yl)formamido]methyl}-6-(2-{[(tert-butoxy)carbonyl]amino}ethoxy)-1,3-diethyl-1H-1,3-benzodiazol-3-ium formate] | 42 min | 59 min | 37 min | –

— patent publication US10759785B2, “Compounds” (ENTERPRISE THERAPEUTICS LIMITED, priority 2016, dated 2020)
